# From US20080051379A1, “Compositions and Methods for the Treatment of Peripheral B-Cell Neoplasms” (Trustees of Boston University, priority 2004, published 2008)
# Assays:
# Type in all cases: cell-based, human
# [1] = tested on: GRE luciferase constructs transiently transfected into B-CLL cells; experiment: GRE luciferase transactivation in B-CLL cells
# Protocol: B-CLL cells (FIG. 3A) or CCRF-CEM cells (FIG. 3B) were transiently transfected with a luciferase construct in which expression is regulated by GRE elements, followed by culture in 10 μM rolipram (R), 40 μM forskolin (Fsk), 1 μM hydrocortisone (HC), 1 mM Rp-8Br-cAMPS (Rp-8Br) or combinations of these agents. 12 hours after addition of the drugs, the relative luminescence of the samples was determined. The data shown are the mean of 8 experiments for B-CLL and two experiments for CCRF-CEM cells. The single asterisk denote a significant difference by paired student's t test between HC alone and either R/HC (FIG. 3A) or F/HC (FIG. 3B) (p<0.02). The double asterisk denotes a significant difference between Rp-8Br-cAMPS/HC and HC alone (p<0.02).
# An MMTV GRE luciferase construct, originally created by Dr. R. Evans, was a gift from Dr. Remco Spanjaard (Dept. of Otolaryngology, Boston Medical Center)^29. 100 million B CLL cells in 200 μl of PBS were added to 500 μl of Nucleofector Solution D containing 30 μg of endotoxin-free (Qiagen) MMTV luciferase constructs. 100 μl was used per transfection using a Nucleofector electroporation instrument (Amaxa Biosystems, Koeln, Germany) using program U16. […] Up to six such aliquots of transfected cells were diluted in media and pooled, prior to distribution of 8 million cells/well in 48 well plates. Two hours after transfection, drugs, cytokines or vehicle alone were added to the transfected cells. 14 hours after transfection, samples were processed using a luciferase assay kit (Promega). Triplicate samples were analyzed with an MGM Instruments Optocomp I luminometer (Hamden, Conn.). Analysis of cell viability (trypan blue exclusion) and total protein (Pierce) verified that equivalent numbers of viable B-CLL cells were analyzed. 100 million CCRF-CEM cells were similarly transfected, cultured and analyzed except that Nucleofector program O17 was utilized. […] Data were analyzed using a two-sided paired t test for means.
# [2] = tested on: glucocorticoid-sensitive subclone (CEM-S2); experiment: MTS cell survival assay, CEM-S2; conditions: dexamethasone-sensitive CCRF-CEM cells; 10 μM, 72 hours
# Protocol: (§1) In FIG. 5A, the polyclonal parental cell line (CCRF-CEM), the single cell-derived glucocorticoid-resistant subclone (CEM-R8) and the single cell-derived glucocorticoid-sensitive subclone (CEM-S2) were cultured for 72 hours in the presence of vehicle (ETOH) or dexamethasone at the concentrations indicated and cell viability was assessed by the MTS assay as described in Methods. In FIG. 5B, the glucocorticoid-resistant subclone (CEM-R8) and the glucocorticoid-sensitive subclone (CEM-S2) were cultured for 72 hours in the presence of hydrocortisone (HC) (10 μM HC for the CEM-R8 cells and 1 μM HC for the CEM-S2 cells), 10 μM forskolin (Fsk), 10 μM rolipram (Rol), or combinations of these agents as indicated, and cell viability was assessed by the MTS assay as described in Methods. FIG. 5C: The glucocorticoid-resistant subclone (CEM-R8) and the glucocorticoid-sensitive subclone (CEM-S2) were cultured for 72 hours in the presence of varying amounts of dibutyryl cAMP (db-cAMP) in the absence (−HC) or presence (+HC) of 1 μM hydrocortisone as indicated, and cell viability was assessed by the MTS assay as described in Methods. The data shown were normalized to the vehicle control. Results represent the mean±SD of triplicate determinations.
# CCRF-CEM cells were obtained from ATCC^27. Leukemic or normal mononuclear cells were obtained by centrifugation over Histopaque 1077 (Sigma Chemical Company, St. Louis, Mo.). For purification of T cells, whole mononuclear cells from normal subjects were incubated with magnetic beads coated with appropriate antibodies, then positively purified using a magnet (Miltenyi). […]
# Hoechst 33342 and DiOC6(3) apoptosis assays were performed as previously described^22,28. […] The absorbance (O.D.) of the formazan product was determined at 492 nm using a plate reader (Titertek Multiscan Plus, Labsystems). Percent cell viability was calculated as follows: (O.D. control sample−O.D. blank)/(O.D. test sample−O.D. blank)×100. […]
# [3] = tested on: glucocorticoid-resistant subclone (CEM-R8); experiment: MTS cell survival assay, CEM-R8; conditions: dexamethasone-resistant CCRF-CEM cells; 10 μM, 72 hours
# Protocol: as §1, with “The data shown were normalized to the vehicle control. Results represent the mean±SD of triplicate determinations.” left out
# Hoechst 33342 and DiOC6(3) apoptosis assays were performed as previously described^22,28. […] The absorbance (O.D.) of the formazan product was determined at 492 nm using a plate reader (Titertek Multiscan Plus, Labsystems). […]
# [4] = tested on: PDE4A, PDE4B or PDE4D expression in B-CLL cells; experiment: Western analysis of PDE4 isoforms, B-CLL cells; conditions: 10 μM rolipram, 18 hours
# Protocol: (§2) B-CLL and CCRF-CEM cells were incubated for 18 hours with media alone, 10 μM rolipram, 10 μM forskolin (Fsk), 1 μM hydrocortisone (HC), or the same concentration of rolipram combined with 1 μM hydrocortisone (Roli+HC) or 10 μM forskolin (Roli+Fsk). Lysates of the cells were then assessed for expression of PDE4A, PDE4B or PDE4D by Western analysis. Equal loading of samples was verified by immunoblotting for tubulin.
# 30 million B-CLL cells or 10 million CCRF-CEM cells were incubated for 18 hours in media alone or with the addition of drugs as indicated in the text. Western analysis was then carried out as previously described^30. The PDE4A (66C12H), PDE4B (96G7A) and PDE4D (61D10E) antibodies were kind gifts from Dr. Sharon Wolda (ICOS, Bothell, Wash.) and have been previously described^30 31.
# [5] = tested on: PDE4A, PDE4B or PDE4D expression in CCRF-CEM cells; experiment: Western analysis of PDE4 isoforms, CCRF-CEM cells; conditions: rolipram
# Protocol: as §2
# 30 million B-CLL cells or 10 million CCRF-CEM cells were incubated for 18 hours in media alone or with the addition of drugs as indicated in the text. Western analysis was then carried out as previously described^30.
compound,measurement,setting,value
"COc1ccc(C2CNC(=O)C2)cc1OC1CCCC1 (stereo not shown) [rolipram, 4-(3-cyclopentyloxy-4-methoxyphenyl)-2-pyrrolidone]",augmentation of hydrocortisone-induced transactivation (average),"[1]; 10 μM rolipram + 1 μM hydrocortisone, 5 patients, p<0.02",33%
same,augmentation of GRE transactivation by rolipram itself,"[1]; 10 μM rolipram alone, 7/8 experiments, not statistically significant (p<0.23)",10%
same,effect on cell viability as single agent,[2],no discernable effect
same,effect on cell viability as single agent,[3],no discernable effect
same,expression of 63 and 68 kDa form of PDE4D,[4],either no or very low level rolipram-induced expression
same,expression of 63 and 68 kDa forms of PDE4B,[4],rolipram-inducible expression
same,induction of PDE4 isoforms,[5],nor induced any PDE4 isoform
